Reference: ChEMBL document CHEMBL1743341, “Cytochrome p450 enzymes mechanism based inhibitors: common sub-structures and reactivity” (Curr Drug Metab, 2005)
Each block holds one compound with its values, some of them ahead of it.

Legend:
Type in all cases: ADME
Cytochrome P450 3A4 [1] = target: T1, Cytochrome P450 3A4 (Homo sapiens, UniProt P08684); experiment: (§1) Mechanism based inhibition of human cytochrome P450 3A4 measured by (14C)formaldehyde production from (N-methyl-14C)-erythromycin
CYP3A4 [2] = target: T2, CYP3A4 (Homo sapiens, UniProt P08684); experiment: as §1; conditions: human, probe (N-methyl-14C)-erythromycin
T2 sequence (P08684 whole entry): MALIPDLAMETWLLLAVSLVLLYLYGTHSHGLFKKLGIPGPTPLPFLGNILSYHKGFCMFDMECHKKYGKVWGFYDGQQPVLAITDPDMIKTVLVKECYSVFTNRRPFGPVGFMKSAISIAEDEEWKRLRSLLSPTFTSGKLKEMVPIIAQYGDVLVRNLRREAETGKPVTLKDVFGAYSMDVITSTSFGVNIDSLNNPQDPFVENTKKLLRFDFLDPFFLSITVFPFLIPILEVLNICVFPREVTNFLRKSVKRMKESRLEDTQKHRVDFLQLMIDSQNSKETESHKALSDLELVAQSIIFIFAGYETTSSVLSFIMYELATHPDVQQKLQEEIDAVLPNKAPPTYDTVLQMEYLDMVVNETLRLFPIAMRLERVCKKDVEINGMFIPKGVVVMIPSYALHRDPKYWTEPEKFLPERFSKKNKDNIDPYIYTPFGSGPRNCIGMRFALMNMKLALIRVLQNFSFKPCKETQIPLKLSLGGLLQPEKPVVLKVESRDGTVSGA

Cytochrome P450 2E1 [3] = target: Cytochrome P450 2E1 (Homo sapiens, UniProt P05181); experiment: Mechanism based inhibition of human cytochrome P450 2E1
Cytochrome P450 2E1 (Homo sapiens, UniProt P05181), sequence (P05181 whole entry): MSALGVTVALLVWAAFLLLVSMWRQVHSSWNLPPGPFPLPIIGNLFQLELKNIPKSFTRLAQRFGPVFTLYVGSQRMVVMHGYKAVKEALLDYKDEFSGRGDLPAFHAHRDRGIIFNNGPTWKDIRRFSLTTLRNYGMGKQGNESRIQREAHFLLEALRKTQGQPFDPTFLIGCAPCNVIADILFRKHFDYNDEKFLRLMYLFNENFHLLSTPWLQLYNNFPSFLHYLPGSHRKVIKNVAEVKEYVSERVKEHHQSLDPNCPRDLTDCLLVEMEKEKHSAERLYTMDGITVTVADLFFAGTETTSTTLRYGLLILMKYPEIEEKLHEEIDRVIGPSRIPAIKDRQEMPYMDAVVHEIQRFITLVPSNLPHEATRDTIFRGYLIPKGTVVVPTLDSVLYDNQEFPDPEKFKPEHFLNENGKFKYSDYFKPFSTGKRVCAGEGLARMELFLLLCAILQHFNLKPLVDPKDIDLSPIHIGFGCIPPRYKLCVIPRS

CYP3A4 [4] = target: T2, CYP3A4; experiment: (§2) Mechanism based inhibition of human cytochrome P450 3A4 measured by testosterone 6-beta hydroxylation; conditions: probe testosterone (6-beta hydroxylation)
Cytochrome P450 1A2 = target: T3, Cytochrome P450 1A2 (Homo sapiens, UniProt P05177); experiment: Mechanism based inhibition of human cytochrome P450 1A2 measured by 7-ethoxyresorufin O-deethylation (EROD)
T3 sequence (P05177 whole entry): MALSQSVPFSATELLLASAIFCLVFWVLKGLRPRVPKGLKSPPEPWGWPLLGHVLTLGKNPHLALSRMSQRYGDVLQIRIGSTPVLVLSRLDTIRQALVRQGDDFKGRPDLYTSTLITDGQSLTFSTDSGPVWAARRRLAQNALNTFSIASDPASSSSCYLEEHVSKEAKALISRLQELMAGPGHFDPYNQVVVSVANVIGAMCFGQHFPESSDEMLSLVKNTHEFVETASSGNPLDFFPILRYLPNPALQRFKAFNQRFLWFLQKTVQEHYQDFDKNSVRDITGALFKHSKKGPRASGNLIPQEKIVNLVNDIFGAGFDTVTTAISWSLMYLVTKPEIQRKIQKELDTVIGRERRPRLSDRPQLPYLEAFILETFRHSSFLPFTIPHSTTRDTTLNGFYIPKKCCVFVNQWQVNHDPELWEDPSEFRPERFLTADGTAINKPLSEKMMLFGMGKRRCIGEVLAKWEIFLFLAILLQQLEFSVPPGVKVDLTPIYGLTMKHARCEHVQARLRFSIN

CYP2A6 = target: T4, CYP2A6 (Homo sapiens, UniProt P11509); experiment: (§3) Mechanism based inhibition of human cytochrome P450 2A6 measured by coumarin 7-hydroxylation; conditions: probe coumarin
T4 sequence (P11509 whole entry): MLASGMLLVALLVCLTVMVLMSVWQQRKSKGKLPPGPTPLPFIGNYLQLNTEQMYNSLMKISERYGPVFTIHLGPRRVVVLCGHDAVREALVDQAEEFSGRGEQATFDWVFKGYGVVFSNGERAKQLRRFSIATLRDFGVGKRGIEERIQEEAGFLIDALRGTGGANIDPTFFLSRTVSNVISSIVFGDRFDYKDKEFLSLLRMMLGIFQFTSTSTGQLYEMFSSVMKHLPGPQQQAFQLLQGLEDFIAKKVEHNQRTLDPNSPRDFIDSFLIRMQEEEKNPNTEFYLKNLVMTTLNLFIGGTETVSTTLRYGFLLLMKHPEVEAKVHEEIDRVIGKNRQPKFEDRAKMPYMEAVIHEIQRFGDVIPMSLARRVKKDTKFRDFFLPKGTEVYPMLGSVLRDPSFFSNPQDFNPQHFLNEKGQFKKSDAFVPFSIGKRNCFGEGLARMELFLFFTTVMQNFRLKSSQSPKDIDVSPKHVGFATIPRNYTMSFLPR

Cytochrome P450 2B1 [5] = target: T5, Cytochrome P450 2B1 (Rattus norvegicus, UniProt P00176); experiment: Mechanism based inhibition of rat cytochrome P450 2B1
T5 sequence (P00176 whole entry): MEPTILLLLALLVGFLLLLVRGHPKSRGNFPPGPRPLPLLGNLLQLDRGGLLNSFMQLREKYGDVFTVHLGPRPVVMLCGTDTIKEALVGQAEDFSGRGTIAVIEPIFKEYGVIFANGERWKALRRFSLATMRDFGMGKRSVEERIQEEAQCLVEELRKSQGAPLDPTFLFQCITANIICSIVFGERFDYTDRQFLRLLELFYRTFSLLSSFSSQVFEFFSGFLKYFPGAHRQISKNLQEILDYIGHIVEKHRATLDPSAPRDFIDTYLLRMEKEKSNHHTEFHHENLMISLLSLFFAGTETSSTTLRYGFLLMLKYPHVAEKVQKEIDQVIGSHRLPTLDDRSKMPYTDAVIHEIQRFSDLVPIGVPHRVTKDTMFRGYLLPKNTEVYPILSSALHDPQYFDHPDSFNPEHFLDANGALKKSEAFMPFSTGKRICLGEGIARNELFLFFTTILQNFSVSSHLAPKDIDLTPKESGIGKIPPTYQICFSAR

Cytochrome P450 2B1 [6] = target: T5, Cytochrome P450 2B1; experiment: Mechanism based inhibition of rat cytochrome P450 CYP2B1 measured by 7-EFC O-deethylation activity; conditions: rat
Cytochrome P450 1A1 = target: T6, Cytochrome P450 1A1 (Homo sapiens, UniProt P04798); experiment: Mechanism based inhibition of human cytochrome P450 1A1 measured by 7-ethoxyresorufin O-deethylation (EROD)
T6 sequence (P04798 whole entry): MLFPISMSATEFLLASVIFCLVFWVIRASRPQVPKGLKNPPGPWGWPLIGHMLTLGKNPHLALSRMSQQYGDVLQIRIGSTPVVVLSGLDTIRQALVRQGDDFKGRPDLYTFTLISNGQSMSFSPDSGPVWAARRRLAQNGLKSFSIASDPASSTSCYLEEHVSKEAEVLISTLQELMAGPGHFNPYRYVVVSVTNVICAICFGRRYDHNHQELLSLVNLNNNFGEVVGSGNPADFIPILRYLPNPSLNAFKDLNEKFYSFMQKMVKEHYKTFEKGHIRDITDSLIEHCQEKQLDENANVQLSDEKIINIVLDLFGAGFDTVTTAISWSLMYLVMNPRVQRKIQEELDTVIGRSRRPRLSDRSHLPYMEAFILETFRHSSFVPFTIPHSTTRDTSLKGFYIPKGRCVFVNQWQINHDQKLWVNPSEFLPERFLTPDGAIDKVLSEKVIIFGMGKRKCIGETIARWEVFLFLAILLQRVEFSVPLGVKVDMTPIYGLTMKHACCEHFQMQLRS

Cytochrome P450 3A4 [7] = target: T1, Cytochrome P450 3A4; experiment: as §2
Cytochrome P450 2E1 [8] = target: Cytochrome P450 2E1 (Rattus norvegicus, UniProt P05182); experiment: Mechanism based inhibition of rat cytochrome P450 CYP2E1
Cytochrome P450 2E1 (Rattus norvegicus, UniProt P05182), sequence (P05182 whole entry): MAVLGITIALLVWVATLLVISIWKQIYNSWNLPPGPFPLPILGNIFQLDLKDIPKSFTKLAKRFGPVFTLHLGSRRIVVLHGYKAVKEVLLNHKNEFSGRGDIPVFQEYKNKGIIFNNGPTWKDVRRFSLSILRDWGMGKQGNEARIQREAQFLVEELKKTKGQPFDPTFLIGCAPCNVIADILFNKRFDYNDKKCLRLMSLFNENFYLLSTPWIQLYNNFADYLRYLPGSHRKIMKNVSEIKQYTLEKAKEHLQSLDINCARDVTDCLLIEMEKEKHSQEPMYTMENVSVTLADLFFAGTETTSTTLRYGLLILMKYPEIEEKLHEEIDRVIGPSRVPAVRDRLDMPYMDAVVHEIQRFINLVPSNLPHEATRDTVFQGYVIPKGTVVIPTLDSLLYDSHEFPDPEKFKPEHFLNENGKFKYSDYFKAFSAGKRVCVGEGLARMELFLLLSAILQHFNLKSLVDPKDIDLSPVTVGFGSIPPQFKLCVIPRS

Cytochrome P450 2A6 = target: T7, Cytochrome P450 2A6 (Homo sapiens, UniProt P11509); experiment: as §3
T7 sequence (P11509 whole entry): T4 sequence (P11509 whole entry)

T1 sequence (P08684 whole entry): as the sequence (P08684 whole entry) above

Compound: COc1cc(C[C@H]2C(=O)OC[C@@H]2Cc2ccc3c(c2)OCO3)cc(OC)c1OC
- Ki (Cytochrome P450 3A4 [1]): 0.177 µM
- kinact (CYP3A4 [2]): 0.00533 s⁻¹

- Ki (Cytochrome P450 3A4 [1]): 0.082 µM
- kinact (CYP3A4 [2]): 0.00422 s⁻¹
Compound: COc1cc(C[C@H]2C(O)OC[C@@H]2Cc2ccc3c(c2)OCO3)cc(OC)c1OC (some centres undefined)

Compound: COc1cc(CNC(=O)CCCC/C=C/C(C)C)ccc1O [CAPSAICIN]
- mechanism based inhibition (Cytochrome P450 2E1 [3]): Cytochrome P450 mechanistic inhibitor: PMID 7746093

- kinact (CYP3A4 [4]): 0.000785 s⁻¹
Compound: NNc1nnc(NN)c2ccccc12 [DIHYDRALAZINE]

- Ki (Cytochrome P450 3A4 [1]): 0.142 µM
- kinact (CYP3A4 [2]): 0.00375 s⁻¹
Compound: OC[C@H](Cc1ccc2c(c1)OCO2)[C@H](CO)Cc1ccc2c(c1)OCO2 [DIHYDROCUBEBIN]

Compound: C#C [ETHYNE]
- mechanism based inhibition (Cytochrome P450 1A2): Cytochrome P450 mechanistic inhibitor: PMID 9760279

- Ki (Cytochrome P450 3A4 [1]): 0.373 µM
- kinact (CYP3A4 [2]): 0.00525 s⁻¹
Compound: O=C1OC[C@H](Cc2ccc3c(c2)OCO3)[C@H]1Cc1ccc2c(c1)OCO2 [HINOKININ]

Compound: CN1CCC[C@H]1c1cccnc1 [NICOTINE]
- kinact (CYP2A6): 1.18 s⁻¹

Compound: Cn1cccc1-c1cccnc1 [NICOTYRINE]
- kinact (CYP2A6): 0.104 s⁻¹

Compound: O=NOO [PEROXYNITRITE]
- mechanism based inhibition (Cytochrome P450 2B1 [5]): Cytochrome P450 mechanistic inhibitor: PMID 12588183
- mechanism based inhibition (Cytochrome P450 2B1 [6]): Cytochrome P450 mechanistic inhibitor: PMID 9760281

Compound: Oc1ccc(/C=C/c2cc(O)cc(O)c2)cc1 [RESVERATROL]
- mechanism based inhibition (Cytochrome P450 1A1): Cytochrome P450 mechanistic inhibitor: PMID 11259321
- mechanism based inhibition (Cytochrome P450 3A4 [7]): Cytochrome P450 mechanistic inhibitor: PMID 11701226

- Ki (Cytochrome P450 3A4 [1]): 108 µM
- kinact (CYP3A4 [2]): 0.00645 s⁻¹
Compound: O=c1c2ccccc2nc2n1CCc1c-2[nH]c2ccccc12 [RUTAECARPINE]

- Ki (Cytochrome P450 2B1 [5]): 31 µM
Compound: S=P(N1CC1)(N1CC1)N1CC1 [THIOTEPA]

Compound: C=C[C@]1(C)C[C@@H](OC(=O)CSCCN(CC)CC)[C@]2(C)[C@H](C)CC[C@]3(CCC(=O)[C@H]32)[C@@H](C)[C@@H]1O [TIAMULIN]
- mechanism based inhibition (Cytochrome P450 3A4 [7]): Cytochrome P450 mechanistic inhibitor: PMID 7575636

Compound: ClC=C(Cl)Cl [TRICHLOROETHYLENE]
- mechanism based inhibition (Cytochrome P450 2E1 [8]): Cytochrome P450 mechanistic inhibitor: PMID 9851676

- kinact (CYP2A6; human): 0.0008 s⁻¹
- Ki (Cytochrome P450 2A6): 9150 µM
Compound: CCCC(CCC)C(=O)O [VALPROIC ACID]
